The nature of data set [1]: Exploratory single dose free drug toxicology study in rats. Format: in vivo, rat. To be noted: for reticulocytes: all doses, 72 hours post-dose; for reticulocyte recovery: by 168 hours post-dose; for MTD at 7 day: rat, in vivo. The method, then:
An exploratory single dose toxicology study was conducted in rats comparing the C-1 (PBD bis alkylator) and DM-2 (PBD monoalkylator) free drugs. Animals received a single IV dose of C-1, DM-2, or vehicle and were monitored for a 7-day recovery period.
Toxicity was assessed by clinical observations and clinical pathology (hematology and clinical chemistry at 72 and 168 hours post-dose). In general, results were similar for DM-2 at ten times the dose level of C-1.

The subject of data set [2] is duplex oligonucleotides Pu-GAAATC-Py and Pu-GAAATG-Py. Briefly: Oligonucleotide binding/alkylation assay.
The mark [3] stands for this setting: 100 μM compound, 50 μM DNA, 1 hour, 37° C.

The results in this text go back to US10639373B2, “Pyrrolobenzodiazepine antibody drug conjugates and methods of use” (priority 2015, dated 2020).

Turning to `C=C1C[C@H]2C=Nc3cc(OCCCCCOc4cc5c(cc4OC)C(=O)N4CC(=C)C[C@H]4C=N5)c(OC)cc3C(=O)N2C1` [C-1, (11aS,11a′S)-8,8′-(pentane-1,5-diylbis(oxy))bis(7-methoxy-2-methylene-1,2,3,11a-tetrahydro-5H-benzo[e]pyrrolo[1,2-a][1,4]diazepin-5-one), reference compound], the clinical pathology result in data set [1] (0.2 mg/kg) is “clinical pathology changes indicative of liver and kidney toxicity”. Moreover, in data set [1] (0.05 and 0.1 mg/kg, single IV dose), the tolerability entry is “well tolerated with no clinical signs”. In addition, in data set [1], the reticulocytes entry is reported as “dose-dependent decrease in reticulocytes”; the reticulocyte recovery entry is “recovering in the 0.05 and 0.1 mg/kg groups”. Besides, in data set [1] (single IV dose), the MTD at 7 day amounted to 0.1 mg/kg; the main target organs entry is “bone marrow, kidney, and liver”; the “toxic potency relative to DM-2” value was “approximately ten times as potent as DM-2”. In addition, the “more efficiency to covalently alkylate the duplex oligonucleotides than monoamine DM-1” value in data set [2] (setting [3]) is 2-3 times.
With `C=C1C[C@H]2C=Nc3cc(OC)c(OC)cc3C(=O)N2C1` [C-2, (S)-7,8-dimethoxy-2-methylene-1,2,3,11a-tetrahydro-5H-benzo[e]pyrrolo[1,2-a][1,4]diazepin-5-one], the “less efficiency in covalently alkylating the duplex oligonucleotides than dimer C-1” value in data set [2] (setting [3]) is above 50 times.
`C=C1C[C@H]2CNc3cc(OCCCCCOc4cc5c(cc4OC)C(=O)N4CC(=C)C[C@H]4CN5)c(OC)cc3C(=O)N2C1` [C-3, (11aS,11a′S)-8,8′-(pentane-1,5-diylbis(oxy))bis(7-methoxy-2-methylene-1,2,3,10,11,11a-hexahydro-5H-benzo[e]pyrrolo[1,2-a][1,4]diazepin-5-one)]: in data set [2] (imine bonds of C-1 reduced), the DNA binding entry is on record as “completely eliminates DNA binding”.
For the molecule `C=C1C[C@H]2C=Nc3cc(OCCCCCOc4cc5c(cc4OC)C(=O)N4CC(=C)C[C@H]4C(=O)N5)c(OC)cc3C(=O)N2C1` [DM-2, (S)-7-methoxy-8-((5-(((S)-7-methoxy-2-methylene-5-oxo-2,3,5,11a-tetrahydro-1H-benzo[e]pyrrolo[1,2-a] [1,4]diazepin-8-yl)oxy)pentyl)oxy)-2-methylene-2,3-dihydro-1H-benzo[e]pyrrolo[1,2-a] [1,4]diazepine-5,11(10H,11aH)-dione], in data set [1] (2 mg/kg), the clinical pathology result was “clinical pathology changes indicative of liver and kidney toxicity”; the outcome is given as “euthanized in moribund condition on Day 4”. In addition, the body weight loss entry in data set [1] (2 mg/kg, Day 2 to 4) is recorded as “approximately 14%”. In addition, in data set [1] (0.5 and 1 mg/kg, single IV dose), the tolerability result is recorded as “well tolerated”. Besides, in data set [1], the reticulocytes entry is “dose-dependent decrease in reticulocytes”; the reticulocyte recovery entry is “recovered in the 0.5 and 1 mg/kg groups”. Moreover, in data set [1] (single IV dose), the MTD at 7 day turned out to be 1 mg/kg; the main target organs result was “bone marrow, kidney, and liver”.
